# In patent US10638756B2, “Molecules having pesticidal utility, and intermediates, compositions, and processes, related thereto” (Dow AgroSciences LLC, priority 2017, dated 2020):
# What was measured:
# [1] = system: Cabbage Looper (Trichoplusia ni); test: Bioassay on Cabbage Looper (CL), 128-well diet tray assay; format: in vivo; settings: 168 h, 50 μg/cm^2 on artificial diet, second instar larvae, five to seven days, read-out: CL % Control (or Mortality) rating
# Method: (§1) Certain molecules disclosed in this document were tested against BAW and CL using procedures described in the following examples. In the reporting of the results, the “BAW & CL Rating Table” was used (See Table Section).
# Bioassays on CL were conducted using a 128-well diet tray assay. One to five second instar CL larvae were placed in each well (3 mL) of the diet tray that had been previously filled with 1 mL of artificial diet to which 50 μg/cm^2 of the test molecule (dissolved in 50 μL of 90:10 acetone-water mixture) had been applied (to each of eight wells) and then allowed to dry. Trays were covered with a clear self-adhesive cover, vented to allow gas exchange, and held at 25° C., 14:10 light-dark for five to seven days. Percent mortality was recorded for the larvae in each well; activity in the eight wells was then averaged. The results are indicated in the table entitled “Table ABC: Biological Results” (See Table Section).
# [2] = system: Beet Armyworm (Spodoptera exigua); test: Bioassay on Beet Armyworm (BAW), 128-well diet tray assay; format: in vivo; settings: for mortality at 50 µg/cm2: Spodoptera exigua, 168 h, 50 μg/cm^2 on artificial diet, second instar larvae, five to seven days, read-out: BAW % Control (or Mortality) rating
# Method: as §1
# Bioassays on BAW were conducted using a 128-well diet tray assay. […] Trays were covered with a clear self-adhesive cover, vented to allow gas exchange, and held at 25° C., 14:10 light-dark for five to seven days. Percent mortality was recorded for the larvae in each well; activity in the eight wells was then averaged. The results are indicated in the table entitled “Table ABC: Biological Results” (See Table Section).
Compound,mortality at 50 µg/cm2 [1] [%],mortality at 50 µg/cm2 [2] [%],BAW (Table CD-2) ([2]; 0.005 μg/cm^2),BAW (Table CD-2) ([2]; 0.05 μg/cm^2),BAW (Table CD-2) ([2]; 0.5 μg/cm^2),BAW (Table CD-2) ([2]; 5.0 μg/cm^2)
"CC(C)CCNNC(=O)c1ccc(/C(F)=C/C(c2cc(Cl)c(Cl)c(Cl)c2)C(F)(F)F)cc1C(F)(F)F (stereo not shown) [F145, (Z)—N′-Isopentyl-4-(1,4,4,4-tetrafluoro-3-(3,4,5-trichlorophenyl)but-1-en-1-yl)-2-(trifluoromethyl)benzohydrazide]",50 to 100,50 to 100,,,,
"O=C(NNc1ncccn1)c1ccc(/C(F)=C/C(c2ccc(F)c(Cl)c2)C(F)(F)F)cc1C(F)(F)F (stereo not shown) [F182, (Z)-4-(3-(3-Chloro-4-fluorophenyl)-1,4,4,4-tetrafluorobut-1-en-1-yl)-N′-(pyrimidin-2-yl)-2-(trifluoromethyl)benzohydrazide]",50 to 100,50 to 100,,,,
"O=C(NNC1=NCCN1)c1ccc(/C(F)=C/C(c2cc(Cl)c(Cl)c(Cl)c2)C(F)(F)F)cc1C(F)(F)F (stereo not shown) [F116, (Z)—N′-(4,5-Dihydro-1H-imidazol-2-yl)-4-(1,4,4,4-tetrafluoro-3-(3,4,5-trichlorophenyl)but-1-en-1-yl)-2-(trifluoromethyl)benzohydrazide]",50 to 100,50 to 100,,,,
"O=C(NNc1ncccn1)c1ccc(/C(F)=C/C(c2ccc(OC(F)(F)F)c(Cl)c2)C(F)(F)F)cc1C(F)(F)F (stereo not shown) [F50, (Z)-4-(3-(3-Chloro-4-(trifluoromethoxy)phenyl)-1,4,4,4-tetrafluorobut-1-en-1-yl)-N′-(pyrimidin-2-yl)-2-(trifluoromethyl)benzohydrazide]",50 to 100,50 to 100,,,,
"O=C(NNC1CCCCC1)c1ccc(/C(F)=C/C(c2cc(Cl)c(Cl)c(Cl)c2)C(F)(F)F)cc1C(F)(F)F (stereo not shown) [F137, (Z)—N′-Cyclohexyl-4-(1,4,4,4-tetrafluoro-3-(3,4,5-trichlorophenyl)but-1-en-1-yl)-2-(trifluoromethyl)benzohydrazide]",50 to 100,50 to 100,,,,
"CN(C)CCNNC(=O)c1ccc(/C(F)=C/C(c2cc(Cl)c(Cl)c(Cl)c2)C(F)(F)F)cc1C(F)(F)F (stereo not shown) [F143, (Z)—N′-(2-(Dimethylamino)ethyl)-4-(1,4,4,4-tetrafluoro-3-(3,4,5-trichlorophenyl)but-1-en-1-yl)-2-(trifluoromethyl)benzohydrazide]",0 to 50,50 to 100,,,,
"O=C(NNc1ncccn1)c1ccc(/C(F)=C/C(c2cc(Cl)cc(C(F)(F)F)c2)C(F)(F)F)cc1C(F)(F)F (stereo not shown) [F77, (Z)-4-(3-(3-Chloro-5-(trifluoromethyl)phenyl)-1,4,4,4-tetrafluorobut-1-en-1-yl)-N′-(pyrimidin-2-yl)-2-(trifluoromethyl)benzohydrazide]",50 to 100,50 to 100,,,,
"O=C(NNc1ncccn1)c1ccc(/C(F)=C/[C@@H](c2cc(Cl)c(Cl)c(Cl)c2)C(F)(F)F)cc1C(F)(F)F (single isomer, unassigned) [F94]",50 to 100,50 to 100,0,0,7,100
"O=C(NNc1cccc(Cl)n1)c1ccc(/C(F)=C/C(c2cc(Cl)c(Cl)c(Cl)c2)C(F)(F)F)cc1C(F)(F)F (stereo not shown) [F18, (Z)—N′-(6-Chloropyridin-2-yl)-4-(1,4,4,4-tetrafluoro-3-(3,4,5-trichlorophenyl)but-1-en-1-yl)-2-(trifluoromethyl)benzohydrazide]",50 to 100,50 to 100,,,,
"CN(NC(=O)c1ccc(/C(F)=C/C(c2cc(Cl)c(Cl)c(Cl)c2)C(F)(F)F)cc1Cl)c1ncccn1 (stereo not shown) [F43, (Z)-2-Chloro-N′-methyl-N′-(pyrimidin-2-yl)-4-(1,4,4,4-tetrafluoro-3-(3,4,5-trichlorophenyl)but-1-en-1-yl)benzohydrazide]",50 to 100,50 to 100,,,,
"CN(CC1CC1)NC(=O)c1ccc(/C(F)=C/C(c2cc(Cl)c(Cl)c(Cl)c2)C(F)(F)F)cc1C(F)(F)F (stereo not shown) [F159, (Z)—N′-(Cyclopropylmethyl)-N′-methyl-4-(1,4,4,4-tetrafluoro-3-(3,4,5-trichlorophenyl)but-1-en-1-yl)-2-(trifluoromethyl)benzohydrazide]",50 to 100,50 to 100,,,,
"CN(NC(=O)c1ccc(/C(F)=C/[C@H](c2cc(Cl)c(Cl)c(Cl)c2)C(F)(F)F)cc1C(F)(F)F)c1ncccn1 (single isomer, unassigned) [F29]",50 to 100,50 to 100,,,,
"O=C(NNc1ncccn1)c1ccc(/C(F)=C/C(c2ccc(Cl)c(Br)c2)C(F)(F)F)cc1C(F)(F)F (stereo not shown) [F178, (Z)-4-(3-(3-Bromo-4-chlorophenyl)-1,4,4,4-tetrafluorobut-1-en-1-yl)-N′-(pyrimidin-2-yl)-2-(trifluoromethyl)benzohydrazide]",50 to 100,50 to 100,,,,
"O=C(NNc1cncc(Cl)n1)c1ccc(/C(F)=C/C(c2cc(Cl)c(Cl)c(Cl)c2)C(F)(F)F)cc1C(F)(F)F (stereo not shown) [F104, (Z)—N′-(6-Chloropyrazin-2-yl)-4-(1,4,4,4-tetrafluoro-3-(3,4,5-trichlorophenyl)but-1-en-1-yl)-2-(trifluoromethyl)benzohydrazide]",50 to 100,50 to 100,,,,
"O=C(NNc1c(Cl)cccc1Cl)c1ccc(/C(F)=C/C(c2cc(Cl)c(Cl)c(Cl)c2)C(F)(F)F)cc1C(F)(F)F (stereo not shown) [F129, (Z)—N′-(2,6-dichlorophenyl)-4-(1,4,4,4-tetrafluoro-3-(3,4,5-trichlorophenyl)but-1-en-1-yl)-2-(trifluoromethyl)benzohydrazide]",50 to 100,50 to 100,,,,
"O=C(NNc1ccccn1)c1ccc(/C(F)=C/C(c2cc(Br)c(F)c(Br)c2)C(F)(F)F)cc1C(F)(F)F (stereo not shown) [F6, (Z)-4-(3-(3,5-Dibromo-4-fluorophenyl)-1,4,4,4-tetrafluorobut-1-en-1-yl)-N′-(pyridin-2-yl)-2-(trifluoromethyl)benzohydrazide]",50 to 100,50 to 100,,,,
"O=C(NNc1cccc(C(F)(F)F)n1)c1ccc(/C(F)=C/C(c2cc(Cl)c(Cl)c(Cl)c2)C(F)(F)F)cc1C(F)(F)F (stereo not shown) [F141, (Z)-4-(1,4,4,4-Tetrafluoro-3-(3,4,5-trichlorophenyl)but-1-en-1-yl)-2-(trifluoromethyl)-N′-(6-(trifluoromethyl)pyridin-2-yl)benzohydrazide]",50 to 100,50 to 100,,,,
"O=C(NNc1ccc(C(F)(F)F)cc1)c1ccc(/C(F)=C/C(c2cc(Cl)c(Cl)c(Cl)c2)C(F)(F)F)cc1C(F)(F)F (stereo not shown) [F70, (Z)-4-(1,4,4,4-tetrafluoro-3-(3,4,5-trichlorophenyl)but-1-en-1-yl)-2-(trifluoromethyl)-N′-(4-(trifluoromethyl)phenyl)benzohydrazide]",50 to 100,50 to 100,,,,
"O=C(NNc1cccc(F)n1)c1ccc(/C(F)=C/C(c2cc(Cl)c(Cl)c(Cl)c2)C(F)(F)F)cc1C(F)(F)F (stereo not shown) [F34, (Z)—N′-(6-Fluoropyridin-2-yl)-4-(1,4,4,4-tetrafluoro-3-(3,4,5-trichlorophenyl)but-1-en-1-yl)-2-(trifluoromethyl)benzohydrazide]",50 to 100,50 to 100,,,,
"O=C(NNCC1CC1)c1ccc(/C(F)=C/C(c2cc(Cl)c(Cl)c(Cl)c2)C(F)(F)F)cc1C(F)(F)F (stereo not shown) [F162, (Z)—N′-(Cyclopropylmethyl)-4-(1,4,4,4-tetrafluoro-3-(3,4,5-trichlorophenyl)but-1-en-1-yl)-2-(trifluoromethyl)benzohydrazide]",50 to 100,50 to 100,,,,
"O=C(NNc1ccc(Cl)nc1)c1ccc(/C(F)=C/C(c2cc(Cl)c(Cl)c(Cl)c2)C(F)(F)F)cc1C(F)(F)F (stereo not shown) [F136, (Z)—N′-(6-Chloropyridin-3-yl)-4-(1,4,4,4-tetrafluoro-3-(3,4,5-trichlorophenyl)but-1-en-1-yl)-2-(trifluoromethyl)benzohydrazide]",50 to 100,50 to 100,,,,
"CN(NC(=O)c1ccc(/C(F)=C/C(c2ccc(F)c(C(F)(F)F)c2)C(F)(F)F)cc1C(F)(F)F)c1ncccn1 (stereo not shown) [F113, (Z)—N′-Methyl-N′-(pyrimidin-2-yl)-4-(1,4,4,4-tetrafluoro-3-(4-fluoro-3-(trifluoromethyl)phenyl)but-1-en-1-yl)-2-(trifluoromethyl)benzohydrazide]",50 to 100,50 to 100,,,,
"C=C(OCC)c1c(Cl)cc(C(/C=C(\F)c2ccc(C(=O)NNc3ncccn3)c(C(F)(F)F)c2)C(F)(F)F)cc1Cl (stereo not shown) [F190, (Z)-4-(3-(3,5-Dichloro-4-(1-ethoxyvinyl)phenyl)-1,4,4,4-tetrafluorobut-1-en-1-yl)-N′-(pyrimidin-2-yl)-2-(trifluoromethyl)benzohydrazide]",50 to 100,50 to 100,,,,
"O=C(NNc1ncnc(Cl)n1)c1ccc(/C(F)=C/C(c2cc(Cl)c(Cl)c(Cl)c2)C(F)(F)F)cc1C(F)(F)F (stereo not shown) [F58, (Z)—N′-(4-Chloro-1,3,5-triazin-2-yl)-4-(1,4,4,4-tetrafluoro-3-(3,4,5-trichlorophenyl)but-1-en-1-yl)-2-(trifluoromethyl)benzohydrazide]",50 to 100,50 to 100,,,,
